{
  "source": "patent US5538993A",
  "about": "“Certain tetrahydrocannabinol-7-oic acid derivatives” (priority 1991, dated 1996)",
  "key": {"NMDA receptor": {"tested_on": "NMDA receptor", "experiment": "NMDA-blocking response in Xenopus oocytes injected with rat brain RNA", "format": "cell-based", "conditions": "upon return to ND 96 solution", "description": "The oocyte is the most widely used system for studying the molecular, biophysical. and pharmacological properties of expressed voltage- or transmitter-operated ion channels. This giant cell offers several advantages for this type of studies. It can be readily used for two-electrode voltage clamp studies, translates injected mRNA from different sources and functionally expresses the translated proteins, and it is also readily amenable for intracellular microinjections. Importantly, the recordings of transmitter or voltage-induced currents in a single oocyte are extremely stable and can be done, without rundown, for 2-3 hours; this allows the performance of a full dose-response relation in single oocytes.\nNeuronal receptors for excitatory amino acid (EAA) are becoming increasingly important for the understanding of normal and pathological brain function. Quantitative pharmacological studies of EAA receptor/ion channel. complex are difficult to study in neurons. Therefore, Xenopus oocyte injected with brain MRNA is now the preparation of choice.\nThe response to N-methyl-D-aspartate (NMDA) in oocytes injected with rat brain mRNA was characterized and the effects of HU-245 were studied.\nFemale Xenopus were anesthetized by immersion in water containing 0.15% tricaine methanesulfonate and a small incision was made in the lower abdomen. Ovary fragments were removed into ND-96. […]"}, "mouse hot plate test": {"tested_on": "mouse hot plate test", "experiment": "Hot plate test for antinociception (55° C.)", "format": "in vivo", "conditions": "0.02 mg/kg oral, 90 min before test", "experimental": "In the hot plate test for analgesia an aluminum surface was maintained at 55±1° C. by circulating water through passages in the metal. A clear plastic cylinder 18 cm in diameter and 26 cm high was placed on the surface to prevent escape. The end point was taken when the mouse either performed a hind paw lick or jumped off the surface; in no case were the animals kept for more than 30 secs on the plate. Mice were never used more than one time; control values were always measured at 11 a.m. and test values at 2 p.m. The drugs were administered orally 90 min before the hot plate test. The percent change in response time (latency) was calculated by comparing the mean of the control values with the mean of the test values and statistical signficance determined by a paired tetest analysis using software (Statview, 512) from Brainpower, Inc., Calabasas, Calif."}, "cataleptic response": {"tested_on": "cataleptic response", "experiment": "Cataleptic effects, ring test", "format": "in vivo, mouse", "conditions": "5 min test period, ± SD", "experimental": "The lack of CNS activity for the compounds described herein may be seen from the data shown in Table V. This was measured by the so-called \"ring test\" [Pertwee, R. G., et al., J. Pharmacol., 46, 753 (1972)] in which the cataleptic effects of cannabinoids can be quantitated. The compounds produced little or no response when compared with the parent drug.\nThe cataleptic response was measured using the ring test. Mice were placed on a horizontal wire ring 5.5 cm in diameter, which was attached to a 16 cm vertical rod. The hind paws and fore paws were placed at opposite sides of the ring. It is important that the ambient temperature is maintained at 30° C. and that the environment be free of auditory stimuli and bright lights. The criteria for immobility are detailed by Pertwee. The response is calculated as the fraction of time the mouse is immobile over a 5 min. test period. Measurements were always done between 2 and 4 p.m. and the animals were used only once."}, "intraocular pressure": {"tested_on": "intraocular pressure", "experiment": "Reduction of intraocular pressure (anti-glaucoma)", "format": "in vivo, rabbits", "conditions": "50 μl drop of a 1% emulsion into rabbit eye", "experimental": "Reduction of intraocular pressure in rabbits was determined by the addition of a 50 μl drop of a 1% emulsion of the cannabinoid into the rabbit eye. This test is a measure of anti-glaucoma activity."}, "[1]": {"tested_on": "strychnine induced lethality", "experiment": "Protection against strychnine induced lethality", "format": "in vivo", "conditions": "rats; result in words", "description": "(§1) The present compounds are active in several tests generally used to indicate neuroprotection."}, "[2]": {"tested_on": "N-methyl-D-aspartate (NMDA) induced lethality", "experiment": "Protection against NMDA induced lethality", "format": "in vivo, Balb/c male mice", "conditions": "mice; result in words", "experimental": "as §1\n(§2) Balb/c male mice were administered with the drug 90 min before treatment with NMDA (125 mq/kg) or 120 min before picrotoxin (8 mg/kg) in emulsion, s.c. The survival rate shown in Table VI indicates number of survivors out of total number of animals used."}, "[3]": {"tested_on": "Picrotoxin induced lethality", "experiment": "Protection against picrotoxin induced lethality", "format": "in vivo, Balb/c male mice", "conditions": "mice; result in words", "experimental": "as §1, §2"}, "peritoneal leukocytes": {"tested_on": "peritoneal leukocytes", "experiment": "Leukocyte adhesion assay (peritoneal cells after oral dosing)", "format": "in vivo, female CD-1 mice", "conditions": "cells collected 90 min after dosing; for number of adhering cells: ± S.D", "experimental": "Leukocytes are thought to be major contributors to the inflammatory response and their ability in this regard is reflected by their adhesiveness to a variety of substrates [Audette, C. A., et al., ibid.] Sci., 47, 753 (1990)].\nThe details of the leukocytes adhesion assay have been previously reported [Audette et al., ibid.]. In brief, peritoneal cells from female CD-1 mice (20-25 g) were collected at 90 min following oral administration of the drug or vehicle (50 μl peanut oil). Cells from each treatment group (N=3) were pooled and equal numbers aliquoted into six culture dish wells (1.9 cm^2 area). After incubation for 18-20 hours, non-adhering cells were removed and the remaining cell monolayer quantitated by DNA measurement."}, "Solubility": {"experiment": "Solubility", "format": "physicochemical", "conditions": "result in words"}, "forebrain ischemia": {"tested_on": "forebrain ischemia", "experiment": "Protection against forebrain ischemia (unilateral occlusion)", "format": "in vivo", "conditions": "mongolian gerbils, result in words", "description": "as §1"}},
  "data": [
    {"smiles": "CCCCCCC(C)(C)c1cc(OC(C)=O)c2c(c1)OC(C)(C)[C@H]1CC=C(C(=O)O)C[C@H]21", "note": "[HU-245, (3S, 4S) -THC-DMH-7-oic acid, acetate]", "values": [
      {"measurement": "reversibility of effect on NMDA response", "setting": "NMDA receptor", "result": "reversible"},
      {"measurement": "percent change in latency", "setting": "mouse hot plate test", "result": 10.7, "unit": "%"},
      {"measurement": "cataleptic response (fraction of time immobile)", "setting": "cataleptic response; 0.5 mg/kg", "result": "6.8 ± 2.4"},
      {"measurement": "cataleptic response (fraction of time immobile)", "setting": "cataleptic response; 1.0 mg/kg", "result": "12.0 ± 6.0"},
      {"measurement": "reduction of intraocular pressure", "setting": "intraocular pressure", "result": "Significant reduction"},
      {"measurement": "protection against strychnine induced lethality", "setting": "[1]", "result": "protects against strychnine induced lethality"},
      {"measurement": "blocking of NMDA induced lethality", "setting": "[2]", "result": "blocker"},
      {"measurement": "blocking of picrotoxin induced lethality", "setting": "[3]", "result": "blocker"},
      {"measurement": "adhering cells, percent of control", "setting": "peritoneal leukocytes; 0.10 mg/kg oral", "result": "124% of control"},
      {"measurement": "number of adhering cells", "setting": "peritoneal leukocytes; 0.10 mg/kg oral", "result": "0.66 ± 0.08 number of adhering cells × 10^-6"},
      {"measurement": "number of adhering cells", "setting": "peritoneal leukocytes; 0.50 mg/kg oral", "result": "0.85 ± 0.08 number of adhering cells × 10^-6"},
      {"measurement": "number of adhering cells", "setting": "peritoneal leukocytes; 1.00 mg/kg oral", "result": "0.30 ± 0.04 number of adhering cells × 10^-6"},
      {"measurement": "solubility compared with prior art compounds", "setting": "Solubility", "result": "higher than that of prior art compounds"},
      {"measurement": "protection against forebrain ischemia", "setting": "forebrain ischemia", "result": "shown to protect against forebrain ischemia"}
    ]}
  ]
}
